Reference: PubChem BioAssay (NCI)
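Grown in 96-well plates, cells were treated for 48 hours with each compound at five concentrations. Insufficient inhibition: endpoint recorded as highest concentration tested. TGI is the concentration that stops growth completely.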

How the values were obtained:
Assay in all cases: growth of human tumour cells (NCI), 48 h
[1] = system: 786-0 renal
[2] = system: BT-549 breast
[3] = system: CAKI-1 renal
[4] = system: DU-145 prostate
[5] = system: HCT-116 colon
[6] = system: HL-60(TB) leukemia
[7] = system: HOP-62 NSCLC
[8] = system: HOP-92 NSCLC
[9] = system: IGROV1 ovarian
[10] = system: KM12 colon
[11] = system: LOX IMVI melanoma
[12] = system: M14 melanoma
[13] = system: MALME-3M melanoma
[14] = system: NCI-H226 lung
[15] = system: PC-3 prostate
[16] = system: RXF 393 renal
[17] = system: SF-268 CNS
[18] = system: SK-MEL-5 melanoma
[19] = system: SW-620 colon
[20] = system: UO-31 renal

**Q.** For COC(=O)C1=C(C(=O)OC)SC(=C2S[C@@H]3[C@@H]4C[C@H]([C@@H]3S2)[C@H]2C(=O)OC(=O)[C@@H]42)S1, which TGI [1] is on record?
**A.** > 100 µM

**Q.** What about the TGI [2] of the same compound?
**A.** > 100 µM

**Q.** And the TGI [3]?
**A.** > 100 µM

**Q.** And the TGI [4]?
**A.** > 100 µM

**Q.** And the TGI [5]?
**A.** > 100 µM

**Q.** And the TGI [6]?
**A.** > 100 µM

**Q.** And the TGI [7]?
**A.** > 100 µM

**Q.** What about the TGI [8] of the same compound?
**A.** > 100 µM

**Q.** And the TGI [9]?
**A.** > 100 µM

**Q.** What about the TGI [10] of the same compound?
**A.** > 100 µM

**Q.** What about the TGI [11] of the same compound?
**A.** > 100 µM

**Q.** And the TGI [12]?
**A.** > 100 µM

**Q.** What about the TGI [13] of the same compound?
**A.** > 100 µM

**Q.** What about the TGI [14] of the same compound?
**A.** > 100 µM

**Q.** What about the TGI [15] of the same compound?
**A.** > 100 µM

**Q.** And the TGI [16]?
**A.** > 100 µM

**Q.** And the TGI [17]?
**A.** > 100 µM

**Q.** What about the TGI [18] of the same compound?
**A.** > 100 µM

**Q.** What about the TGI [19] of the same compound?
**A.** > 100 µM

**Q.** What about the TGI [20] of the same compound?
**A.** > 100 µM

**Q.** How did the TGI [1] turn out when COC(=O)C1=CN(C2CCCCC2)C2(c3ccccc3)c3ccccc3C(=O)OC(=O)C12 (stereo not given) was run?
**A.** > 100 µM

**Q.** What about the TGI [2] of the same compound?
**A.** > 100 µM

**Q.** And the TGI [3]?
**A.** > 100 µM

**Q.** And the TGI [4]?
**A.** > 100 µM

**Q.** What about the TGI [5] of the same compound?
**A.** > 100 µM

**Q.** What about the TGI [6] of the same compound?
**A.** > 100 µM

**Q.** And the TGI [7]?
**A.** > 100 µM

**Q.** What about the TGI [8] of the same compound?
**A.** > 100 µM

**Q.** What about the TGI [9] of the same compound?
**A.** > 100 µM

**Q.** And the TGI [10]?
**A.** > 100 µM

**Q.** And the TGI [11]?
**A.** > 100 µM

**Q.** And the TGI [12]?
**A.** > 100 µM

**Q.** And the TGI [13]?
**A.** > 100 µM

**Q.** And the TGI [14]?
**A.** > 100 µM

**Q.** What about the TGI [15] of the same compound?
**A.** > 100 µM

**Q.** And the TGI [16]?
**A.** 97.2 µM

**Q.** And the TGI [17]?
**A.** > 100 µM

**Q.** And the TGI [18]?
**A.** > 100 µM

**Q.** What about the TGI [19] of the same compound?
**A.** > 100 µM

**Q.** What about the TGI [20] of the same compound?
**A.** > 100 µM

**Q.** Which results are given for CN(C)CC1CCCCCCCCCC(CN(C)C)C1=O (stereo not given)?
**A.** TGI [1]: > 40.6 µM; TGI [2]: 18.7 µM; TGI [3]: > 50 µM; TGI [4]: 31.1 µM; TGI [5]: > 64.5 µM; TGI [6]: > 100 µM; TGI [7]: > 62.4 µM; TGI [8]: > 48.4 µM; TGI [9]: > 55.8 µM; TGI [10]: > 39.4 µM; TGI [11]: > 37.2 µM; TGI [12]: > 49.1 µM; TGI [13]: > 65.4 µM; TGI [14]: > 60.3 µM; TGI [15]: 19.4 µM; TGI [16]: > 42.4 µM; TGI [17]: > 53.9 µM; TGI [18]: 41.2 µM; TGI [19]: > 45.5 µM; TGI [20]: > 53.3 µM
